In series [1] the test system is HepG2 cells. Nature of the series: cells. Conditions: for EC50: read-out: EC50 cytoprotection, Table 7, HepG2 against CCl4 toxicity, estimated. The source says:
Experimental conditions were standardized on silybin. […]
The ratio of IC50-to-EC50 (hereafter T/A) is also indicated in this table, which gives the margin between toxic and cytoprotective concentrations.

In series [2] the test system is HSC-T6 cells. Nature of the series: Serum-driven HSC-T6 proliferation, experiment 1 (4 h challenge, two days drug-free growth). It counts as cell-based, rat. Conditions: for EC50: HSC-T6, 4 h challenge, then two days drug-free media.
Series [3] is described as follows: Chromatographic hydrophobicity index (CHI) by RP-HPLC in buffered acetonitrile. The conditions noted are these: for CHIACN1: buffered acetonitrile pH 7.0, Alltima C18 250 mm, Eq. (2) from isocratic φ0; for CHIACN2: buffered acetonitrile pH 7.0, Eq. (3) calibrated against published CHI. Format: physicochemical. More on the design: key: CHI = φ0 (isocratic hydrophobicity index), = A·tR + B; ACN % scale.

Series [4] is described as follows: Chromatographic hydrophobicity index (CHI) by RP-HPLC in buffered methanol. The conditions noted are these: buffered methanol pH 7.0, Econosil C18 150 mm, Eq. (4). It counts as physicochemical.
In series [5] the test system is HepG2 cells. Nature of the series: Cucurbitacins cytotoxicity on HepG2 cells (MTT viability assay). It counts as cell-based, human.
Series [6] deals with HSC-T6 cells. Nature of the series: Cytotoxicity on HSC-T6 cells (experiment 3). Format: cell-based, rat. The conditions noted are these: read-out: Experiment 3 IC50 (T). An excerpt:
Cytotoxicity of all cucurbitacin analogs was additionally measured in experiment 3 (Table 8).

For the compound cucurbitacin E, the “cytoprotection on HepG2 cells” value in series [1] (at 6.25% of IC50, against CCl4) amounted to 12.41 ± 0.78; in series [1] (at 12.5% of IC50, against CCl4), 21.72 ± 0.75; in series [1] (at 20% of IC50, against CCl4), 49.21 ± 1.73; in series [1] (at 50% of IC50, against CCl4), 80.55 ± 6.80. The EC50 was 3.2 µM in series [1] and 0.86 µM in series [2]. Also, in series [3], the CHIACN1 stood at 75.92. In addition, the CHIACN2 in series [3] came out at 83.13. Besides, in series [4], the CHIMeOH was 69.6!^. For the same compound, the IC50 in series [5] (Table 4, 24 h incubation, MTT) turned out to be 15.3 µM; in series [5] (Table 5) it was 15.3 ± 6.6 µM; in series [5] (Table 7), 15.3 µM.

With `CC(=O)OC(C)(C)/C=C/C(=O)[C@](C)(O)[C@H]1[C@H](O)C[C@@]2(C)[C@@H]3CC=C4[C@H](C[C@H](O)C(=O)C4(C)C)[C@]3(C)C(=O)C[C@]12C` [B, cucurbitacin B], the “cytoprotection on HepG2 cells” value was 12.45 ± 1.11 in series [1] (at 6.25% of IC50, against CCl4); 25.25 ± 1.36 in series [1] (at 12.5% of IC50, against CCl4); 34.92 ± 2.76 in series [1] (at 20% of IC50, against CCl4); 60.01 ± 0.80 in series [1] (at 50% of IC50, against CCl4). The EC50 in series [1] is 10.5 µM; in series [2], 1.18 µM. Moreover, the CHIACN1 in series [3] worked out at 70.93. Further, the CHIACN2 in series [3] is 75.40. In addition, the CHIMeOH in series [4] is 67.33. Besides, the IC50 in series [5] (Table 4, 24 h incubation, MTT) was 27.7 ± 9 µM; in series [5] (Table 5) it was 27.7 ± 9 µM; in series [5] (Table 7) it was 27.7 µM; in series [6], 4.4 µM.

As for Cucurbitacin E-Me ether, the values for the concentration giving a half-maximal response (EC50) in series [1] and in series [2] were 2.4 µM and 3.05 µM, respectively. The CHIACN1 in series [3] was 77.84. In addition, the CHIACN2 in series [3] is on record as 86.09. This compound also showed a CHIMeOH in series [4] of 71.55. Also, the IC50 in series [5] (Table 4, 24 h incubation, MTT) worked out at 12 ± 3 µM; in series [5] (Table 5), 12 ± 3 µM; in series [5] (Table 7), 12 µM; in series [6] it was 2.8 µM.

On to `CC(=O)OC(C)(C)/C=C/C(=O)[C@](C)(O)[C@H]1[C@H](O)C[C@@]2(C)[C@@H]3CC=C4[C@@H](C=C(O[C@@H]5O[C@H](CO)[C@@H](O)[C@H](O)[C@H]5O)C(=O)C4(C)C)[C@]3(C)C(=O)C[C@]12C` [E-Gluc, cucurbitacin E glucoside], for which the “cytoprotection on HepG2 cells” value in series [1] (at 6.25% of IC50, against CCl4) is reported as −2.36 ± 1.08; in series [1] (at 12.5% of IC50, against CCl4), 17.96 ± 1.14; in series [1] (at 20% of IC50, against CCl4) it was 49.44 ± 0.29; in series [1] (at 50% of IC50, against CCl4) it was 33.92 ± 2.92. For the same compound, the EC50 in series [1] was 45.3 µM. Further, the anti-proliferation activity result in series [2] (Experiment 1, FIG. 7, 150 μM) is on record as “about 38%”. The “Experiment 1 anti-proliferation activity” value in series [2] (measured at 100 μM) is given as “˜46%^a^”. Moreover, in series [3], the CHIACN1 stood at 53.98. In addition, in series [3], the CHIACN2 came out at 49.13. Moreover, the CHIMeOH in series [4] is given as 62.27. Further, the IC50 worked out at 227 ± 15.3 µM in series [5] (Table 4, 24 h incubation, MTT); 227 ± 15.5 µM in series [5] (Table 5); 227 µM in series [5] (Table 7); 102 µM in series [6].

(Values after patent US20070049538A1, “METHODS FOR USING CUCURBITACIN COMPOUNDS” (SOUTH DAKOTA STATE UNIVERSITY, priority 2005, published 2007).)
